{"source": "patent US11000033B2", "about": "“Ketone or oxime compound, and herbicide” (NISSAN CHEMICAL CORPORATION, priority 2014, dated 2021)", "assay_type_in_all_cases": "in vivo", "key": {"Leptochloa chinensis": {"tested_on": "Leptochloa chinensis", "experiment": "Test Example 3: herbicidal effect by foliage application, Wagner pot (symbol D)", "conditions": "application herbicide amount 320 g/ha; for D (Leptochloa chinensis) herbicidal effect grade: Table 24", "summary_of_the_method": "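The compound, formulated as an emulsion and diluted with water to a predetermined rate, is applied uniformly to leaves of two-week-old seedlings growing in submerged alluvial soil at 25–30 °C. Rice is included. Each plant is assessed 3 weeks later using defined criteria.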"}, "Lolium multiflorum Lam.": {"tested_on": "Lolium multiflorum Lam.", "experiment": "Test Example 4: herbicidal effect by soil treatment (symbol K)", "summary_of_the_method": "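Seeds were sown in sterilized diluvial soil, covered with about 1.5 cm of soil, and the soil surface was sprayed with a water-diluted emulsion of the compound at a predetermined rate. Plants grew in a greenhouse at 25° C. to 30° C.; effects were scored visually 3 weeks after application.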"}, "corn": {"tested_on": "corn", "experiment": "Test Example 4: effect on crop by soil treatment (symbol c)", "conditions": "for c: corn, effect grade on crop: 320 g/ha; for c: corn, effect on crop grade / Effect on crop grade, c: corn: application herbicide amount 320 g/ha", "summary_of_the_method": "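Seeds were sown in spots on sterilized diluvial soil in a plastic box and covered with about 1.5 cm of soil. Plants were then grown in a greenhouse at 25° C. to 30° C.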"}, "[1]": {"conditions": "application herbicide amount 320 g/ha"}}, "data": [{"smiles": "CC(CC1CC(O)=C(c2c(C)cc(C)cc2C)C1=O)=NOCc1ccc(C(F)(F)F)cc1", "note": "(stereo not drawn) [1-138]", "values": [{"measurement": "herbicidal effect on D (Leptochloa chinensis), grade 0-5", "setting": "Leptochloa chinensis", "result": "2 (Herbicidal ratio of 20% or higher and lower than 40%)"}, {"measurement": "K: Lolium multiflorum Lam., herbicidal effect grade", "setting": "Lolium multiflorum Lam.; 320 g/ha", "result": "5 (Herbicidal ratio of 90% or more (almost completely withered))"}, {"measurement": "c: corn, effect grade on crop", "setting": "corn", "result": "0 (Herbicidal ratio of 5% or lower (almost no effect))"}]}, {"smiles": "CON=C(C)CC1CC(OC(=O)N(C)CCCCCl)=C(c2c(C)cc(C)cc2C)C1=O", "note": "(stereo not drawn) [1-126]", "values": [{"measurement": "herbicidal effect on D (Leptochloa chinensis), grade 0-5", "setting": "Leptochloa chinensis", "result": "5 (Herbicidal ratio of 90% or more (almost completely withered))"}, {"measurement": "K: Lolium multiflorum Lam., herbicidal effect grade", "setting": "Lolium multiflorum Lam.; 320 g/ha", "result": "4 (Herbicidal ratio of 70% or higher and lower than 90%)"}, {"measurement": "c: corn, effect grade on crop", "setting": "corn", "result": "0 (Herbicidal ratio of 5% or lower (almost no effect))"}]}, {"smiles": "CON=C(C)CC1CC(OC(=O)c2cnoc2C2CC2)=C(c2c(C)cc(C)cc2C)C1=O", "note": "(stereo not drawn) [1-103]", "values": [{"measurement": "herbicidal effect on D (Leptochloa chinensis), grade 0-5", "setting": "Leptochloa chinensis", "result": "5 (Herbicidal ratio of 90% or more (almost completely withered))"}, {"measurement": "K: Lolium multiflorum Lam., herbicidal effect grade", "setting": "Lolium multiflorum Lam.; 320 g/ha", "result": "5 (Herbicidal ratio of 90% or more (almost completely withered))"}, {"measurement": "c: corn, effect grade on crop", "setting": "corn", "result": "5 (Herbicidal ratio of 90% or more (almost completely withered))"}]}, {"smiles": "CCC(CC1CC(O)=C(c2c(C)cc(Br)cc2OC)C1=O)=NOC", "note": "(mixture of isomers) [13-001]", "values": [{"measurement": "D (Leptochloa chinensis) herbicidal effect grade", "setting": "Leptochloa chinensis", "result": "5 (Herbicidal ratio of 90% or more (almost completely withered))"}, {"measurement": "K: Lolium multiflorum Lam., herbicidal effect grade", "setting": "Lolium multiflorum Lam.; [1]", "result": "5 (Herbicidal ratio of 90% or more (almost completely withered))"}, {"measurement": "c: corn, effect on crop grade", "setting": "corn", "result": "5 (Herbicidal ratio of 90% or more (almost completely withered))"}]}, {"smiles": "CC(CC1CC(O)=C(c2c(C)cc(C)cc2C)C1=O)=NOCc1cccc(Cl)c1", "note": "(stereo not drawn) [1-114]", "values": [{"measurement": "herbicidal effect on D (Leptochloa chinensis), grade 0-5", "setting": "Leptochloa chinensis", "result": "5 (Herbicidal ratio of 90% or more (almost completely withered))"}, {"measurement": "K: Lolium multiflorum Lam., herbicidal effect grade", "setting": "Lolium multiflorum Lam.; 320 g/ha", "result": "5 (Herbicidal ratio of 90% or more (almost completely withered))"}, {"measurement": "c: corn, effect grade on crop", "setting": "corn", "result": "0 (Herbicidal ratio of 5% or lower (almost no effect))"}]}, {"smiles": "CC(CC1CC(OC(=O)COc2ccccc2)=C(c2c(C)cc(-c3ccc(Cl)cc3)cc2C)C1=O)=NOCC(F)(F)F", "note": "(mixture of isomers) [9-027]", "values": [{"measurement": "D (Leptochloa chinensis) herbicidal effect grade", "setting": "Leptochloa chinensis", "result": "5 (Herbicidal ratio of 90% or more (almost completely withered))"}, {"measurement": "Herbicidal effect grade, K: Lolium multiflorum Lam.", "setting": "Lolium multiflorum Lam.; [1]", "result": "5 (Herbicidal ratio of 90% or more (almost completely withered))"}, {"measurement": "Effect on crop grade, c: corn", "setting": "corn", "result": "0 (Herbicidal ratio of 5% or lower (almost no effect))"}]}, {"smiles": "CC(CC1CC(O)=C(c2c(C)cc(C)cc2C)C1=O)=NOCCS(C)(=O)=O", "note": "(stereo not drawn) [1-110]", "values": [{"measurement": "herbicidal effect on D (Leptochloa chinensis), grade 0-5", "setting": "Leptochloa chinensis", "result": "5 (Herbicidal ratio of 90% or more (almost completely withered))"}, {"measurement": "K: Lolium multiflorum Lam., herbicidal effect grade", "setting": "Lolium multiflorum Lam.; 320 g/ha", "result": "5 (Herbicidal ratio of 90% or more (almost completely withered))"}, {"measurement": "c: corn, effect grade on crop", "setting": "corn", "result": "4 (Herbicidal ratio of 70% or higher and lower than 90%)"}]}, {"smiles": "CC#Cc1cc(C)c(C2=C(OC(=O)COc3ccccc3)CC(CC(C)=NOCC(F)(F)F)C2=O)c(C)c1", "note": "(stereo not drawn) [9-013]", "values": [{"measurement": "D (Leptochloa chinensis) herbicidal effect grade", "setting": "Leptochloa chinensis", "result": "5 (Herbicidal ratio of 90% or more (almost completely withered))"}, {"measurement": "Herbicidal effect grade, K: Lolium multiflorum Lam.", "setting": "Lolium multiflorum Lam.; [1]", "result": "5 (Herbicidal ratio of 90% or more (almost completely withered))"}, {"measurement": "Effect on crop grade, c: corn", "setting": "corn", "result": "5 (Herbicidal ratio of 90% or more (almost completely withered))"}]}, {"smiles": "CC#Cc1cc(C)c(C2=C(O)CC(CC(=NOCC(F)(F)F)C(C)C)C2=O)c(C)c1", "note": "(stereo not drawn) [9-015]", "values": [{"measurement": "D (Leptochloa chinensis) herbicidal effect grade", "setting": "Leptochloa chinensis", "result": "5 (Herbicidal ratio of 90% or more (almost completely withered))"}, {"measurement": "Herbicidal effect grade, K: Lolium multiflorum Lam.", "setting": "Lolium multiflorum Lam.; [1]", "result": "5 (Herbicidal ratio of 90% or more (almost completely withered))"}, {"measurement": "Effect on crop grade, c: corn", "setting": "corn", "result": "0 (Herbicidal ratio of 5% or lower (almost no effect))"}]}, {"smiles": "COc1cc(Br)cc(C)c1C1=C(O)CC(CC(=O)C2CC2)C1=O", "note": "(racemic) [14-001]", "values": [{"measurement": "D (Leptochloa chinensis) herbicidal effect grade", "setting": "Leptochloa chinensis", "result": "5 (Herbicidal ratio of 90% or more (almost completely withered))"}, {"measurement": "K: Lolium multiflorum Lam., herbicidal effect grade", "setting": "Lolium multiflorum Lam.; [1]", "result": "5 (Herbicidal ratio of 90% or more (almost completely withered))"}, {"measurement": "c: corn, effect on crop grade", "setting": "corn", "result": "5 (Herbicidal ratio of 90% or more (almost completely withered))"}]}, {"smiles": "CC(CC1CC(O)=C(c2c(C)cc(-c3ccc(Cl)cc3)cc2C)C1=O)=NOCC(F)(F)F", "note": "(stereo not drawn) [9-024]", "values": [{"measurement": "D (Leptochloa chinensis) herbicidal effect grade", "setting": "Leptochloa chinensis", "result": "5 (Herbicidal ratio of 90% or more (almost completely withered))"}, {"measurement": "Herbicidal effect grade, K: Lolium multiflorum Lam.", "setting": "Lolium multiflorum Lam.; [1]", "result": "5 (Herbicidal ratio of 90% or more (almost completely withered))"}, {"measurement": "Effect on crop grade, c: corn", "setting": "corn", "result": "0 (Herbicidal ratio of 5% or lower (almost no effect))"}]}, {"smiles": "CON=C(C)CC1(C)CC(O)=C(c2c(C)cc(C)cc2C)C1=O", "note": "(mixture of isomers) [11-002]", "values": [{"measurement": "D (Leptochloa chinensis) herbicidal effect grade", "setting": "Leptochloa chinensis", "result": "5 (Herbicidal ratio of 90% or more (almost completely withered))"}, {"measurement": "Herbicidal effect grade, K: Lolium multiflorum Lam.", "setting": "Lolium multiflorum Lam.; [1]", "result": "5 (Herbicidal ratio of 90% or more (almost completely withered))"}, {"measurement": "Effect on crop grade, c: corn", "setting": "corn", "result": "1 (Herbicidal ratio of 5% or higher and lower than 20%)"}]}, {"smiles": "CCC(CC1CC(O)=C(c2c(C)cc(C)cc2OC)C1=O)=NOC", "note": "(mixture of isomers) [13-003]", "values": [{"measurement": "D (Leptochloa chinensis) herbicidal effect grade", "setting": "Leptochloa chinensis", "result": "5 (Herbicidal ratio of 90% or more (almost completely withered))"}, {"measurement": "K: Lolium multiflorum Lam., herbicidal effect grade", "setting": "Lolium multiflorum Lam.; [1]", "result": "5 (Herbicidal ratio of 90% or more (almost completely withered))"}, {"measurement": "c: corn, effect on crop grade", "setting": "corn", "result": "5 (Herbicidal ratio of 90% or more (almost completely withered))"}]}, {"smiles": "Cc1cc(Br)cc(C)c1C1=C(O)CC(CC(=O)C(C)C)C1=O", "note": "(racemic) [10-003]", "values": [{"measurement": "D (Leptochloa chinensis) herbicidal effect grade", "setting": "Leptochloa chinensis", "result": "4 (Herbicidal ratio of 70% or higher and lower than 90%)"}, {"measurement": "Herbicidal effect grade, K: Lolium multiflorum Lam.", "setting": "Lolium multiflorum Lam.; [1]", "result": "4 (Herbicidal ratio of 70% or higher and lower than 90%)"}, {"measurement": "Effect on crop grade, c: corn", "setting": "corn", "result": "0 (Herbicidal ratio of 5% or lower (almost no effect))"}]}, {"smiles": "CC#Cc1cc(C)c(C2=C(O)CC(CC(=NOCCOC)C3CC3)C2=O)c(C)c1", "note": "(stereo not drawn) [9-021]", "values": [{"measurement": "D (Leptochloa chinensis) herbicidal effect grade", "setting": "Leptochloa chinensis", "result": "5 (Herbicidal ratio of 90% or more (almost completely withered))"}, {"measurement": "Herbicidal effect grade, K: Lolium multiflorum Lam.", "setting": "Lolium multiflorum Lam.; [1]", "result": "5 (Herbicidal ratio of 90% or more (almost completely withered))"}, {"measurement": "Effect on crop grade, c: corn", "setting": "corn", "result": "3 (Herbicidal ratio of 40% or higher and lower than 70%)"}]}, {"smiles": "Cc1cc(-n2cc(Cl)cn2)cc(C)c1C1=C(O)CC(CC(=NOCC(F)(F)F)C(C)C)C1=O", "note": "(stereo not drawn) [9-014]", "values": [{"measurement": "D (Leptochloa chinensis) herbicidal effect grade", "setting": "Leptochloa chinensis", "result": "5 (Herbicidal ratio of 90% or more (almost completely withered))"}, {"measurement": "Herbicidal effect grade, K: Lolium multiflorum Lam.", "setting": "Lolium multiflorum Lam.; [1]", "result": "0 (Herbicidal ratio of 5% or lower (almost no effect))"}, {"measurement": "Effect on crop grade, c: corn", "setting": "corn", "result": "0 (Herbicidal ratio of 5% or lower (almost no effect))"}]}, {"smiles": "Cc1cc(Br)cc(C)c1C1=C(O)CC(CC(=O)C2CC2)C1=O", "note": "(racemic) [10-004]", "values": [{"measurement": "D (Leptochloa chinensis) herbicidal effect grade", "setting": "Leptochloa chinensis", "result": "5 (Herbicidal ratio of 90% or more (almost completely withered))"}, {"measurement": "Herbicidal effect grade, K: Lolium multiflorum Lam.", "setting": "Lolium multiflorum Lam.; [1]", "result": "5 (Herbicidal ratio of 90% or more (almost completely withered))"}, {"measurement": "Effect on crop grade, c: corn", "setting": "corn", "result": "5 (Herbicidal ratio of 90% or more (almost completely withered))"}]}]}
